# Measurements reported in patent US6503534B1, “Pharmaceutical compositions for prolonged peptide release and preparation method” (Societe de Conseils de Recherches et d'Applications …, priority 1998, dated 2003).
# Assay: Measurement of the specific surface area (B.E.T method)
# Assay type: physicochemical
# Settings: lanreotide acetate recovered after flash freezing and lyophilization
# Protocol: For all the following examples, the specific surface area of the peptide salt was determined by the so-called B.E.T method (absorption of a nitrogen monolayer on the active substance), a method well known to a person skilled in the art.
smiles,measurement,value
"CC(C)[C@@H]1NC(=O)[C@H](CCCCN)NC(=O)[C@@H](Cc2c[nH]c3ccccc23)NC(=O)[C@H](Cc2ccc(O)cc2)NC(=O)[C@@H](NC(=O)[C@H](N)Cc2ccc3ccccc3c2)CSSC[C@@H](C(=O)N[C@H](C(N)=O)[C@@H](C)O)NC1=O [Example 3, lanreotide acetate]",Specific surface area obtained,36 m^2/g
"CC(C)[C@@H]1NC(=O)[C@H](CCCCN)NC(=O)[C@@H](Cc2c[nH]c3ccccc23)NC(=O)[C@H](Cc2ccc(O)cc2)NC(=O)[C@@H](NC(=O)[C@H](N)Cc2ccc3ccccc3c2)CSSC[C@@H](C(=O)N[C@H](C(N)=O)[C@@H](C)O)NC1=O [Example 4, lanreotide acetate]",Specific surface area obtained,43 m^2/g
